In US20140371159A1, “IN VITRO METHOD FOR MODIFYING THE DEPLETION PROFILE OF TREG CELLS PRESENT IN A TOTAL SPLENOCYTE POPULATION OF A BIOLOGICAL SAMPLE BY MEANS OF THE ISOLATION, CULTURING AND EXPOSURE THEREOF TO AN ATP AND POLYMIXIN B MEDIUM” (Universidad de Santiago de Chile, priority 2011, published 2014):
“Also recorded” adds a separate entry of the source. Like-named read-outs stand apart in the source and are kept apart here.

Assays:
[1] = test system: P2X7 receptor (CD4+CD25+ population); test: Effect of P2X7 antagonists on PMB/ATP-induced depletion of CD4+CD25+ population in splenocytes (Example 2); format: cell-based, mice; details: for inhibition of the effect induced by ATP 100 μM over CD4+CD25+ population: BBG 100 nM (FIG. 5), A740003 (FIG. 6); for inhibition of the effect of low dose PMB and ATP over CD4+CD25+ populations: PPADS 10 μM, BBG 100 nM, PMB 1 μg/mL, ATP 60 μM and both, FIG. 4
Description: (§1) To determine the in vitro effect of polymyxin and other receptor modulators: P2X7, spleen from mice b6 and/or balbc were extracted, and splenocytes were isolated using repeated centrifugation, eliminating red cells for treatment with a lysis buffer ACK. Generally, the experiments were performed in cells obtained from animals b6. The obtained splenocytes are cultured in RPMI Medium supplemented with antibiotics and serum at 10%. Cells remain in rest for 2 hours at a concentration of 1 million cells/ml, after the same are breeding and incubated with purinergic agonists dissolved in PBS (ATP 0.1 μM-1,000 μM and NAD 0.01-1,000 μM), modulators of PMB receptor (0.001 up to 1,000 μg/m1) and gramicidine (0.001 up to 100 mg/ml). In the case of antagonists, these are used at concentrations which have been described as being more specific to P2X7 than other receptors.
Splenocytes were treated with PMB (Sigma-Aldrich, St Louis, Mont., USA) to different times and concentrations in presence of two modulators negative of the P2X7, PPADS activity and specific antagonist of P2X7 Brilliant Blue G (BBG) (see Brilliant Blue G Selectively Blocks ATP-Gated Rat P2X7 receptors. JIANG, 2000. 12). Cells were kept for 24 hrs in conditions of cell culture. Subsequently cells were recollected, blotted and analyzed by flow cytometry.

[2] = test system: CD4+CD25+FOXP3+ lymphocyte populations (human Treg); test: Effect on human Treg lymphocyte populations in PBML from peripheral blood (Example 6); format: cell-based; details: 24 h; FIG. 11
Description: PBML 2×10^6 cells/ml obtained from peripheral blood extracted by centrifugation in gradient was cultured under standard conditions. Subsequently cells were treated with PMB (Sigma-Aldrich, St Louis, Mont., USA). The Treatments were kept for 24 h, in which cell remain in RPMI-1640 medium supplemented at 37° C. 5% CO2. After the treatments cells were harvested in buffer IF (PBS 2% SFB) cold. The obtained cells were blocked at 4° C. for 30 min in buffer IF. To determine the CD4+, CD8+ and CD4+CD25+FOXP3+ lymphocyte populations. After incubation cells were resuspended in buffer IF and analyzed by flow cytometry in the FACSCantoll equipment (Beckett Dickinson, Mississauga, Ontario, USA).

[3] = test system: Melanome murine cells B16; test: Antitumor immune therapy: immunization with B16 apoptotic bodies, then tumor challenge (Example 4); format: in vivo, mice; details: for prophylaxis against the development of tumor b16: given with cell bodies; for protection of challenged animals (free of tumor): cell bodies (CA B16) alone or with the additive
Description: (§2) To evaluate the complementary PMB activity in antitumor therapy, first is determined the effect of this over the in vivo regulating T population. To this, animals having 6-15 weeks and different sex were subcutaneously injected with a solution containing PMB alone (between 4 to 400 μg total), ATP (between 0,4 a 40 mg total) or mixture thereof, in ratios which are not affected therebetween, the CD4CD25 foxp3 population. Animals were dead are different post-injection time, spleen was extracted, erythrocytes eliminated and T lymphocytes present evaluated. The results obtained herein allow determining that PMB injected deplexing regukating T lymphocytes under a transient way. To evaluate the complementary PMB activity in antitumor therapy, cells B16 were cultured under standard conditions in a culture DMEM medium with fetal bovine serum at 10% in a culture stove at 37° C. and 5% CO2. Cells were cultures and submitted to dead induced by deprivation of culture medium for 96 hours, into a culture stove. Cell bodies obtained were collected in sterility conditions and stored at a concentration estimated considering 1 million initial cells/ml. These bodies were prepared together with PMB and ATP inducing a reduction of T reg lymphocytes and injected 3 times each 7 days. After 7 days, once ended the immunization protocol, animals were challenged with 20.000 cells b16 alive obtained from exponential growing culture. Tumor growth was evaluated by hand after the first week daily and measure with a vernier calliper. The resuts obtained herein allow determining that PMB in vivo plus ATP and with cell bodies act in a prophylactic way increasing the number of animals free of tumor after the challenge with alive b16 cells.
Mice from 6 to 8 weeks old were treated with apoptotic bodies (CA) derived from Melanome murine cells B16 (2×10^4), with CA B16 plus ATP 500 μM, CA B16 plus PMB 10 mg/mL and with mixtures if the above three, the control was performed with the sterile immunization carrier PBS 1X.
Immunizations were performed by subcutaneous injection in the right flank in a final volume of 50 μL, at day 0, 7 and 21 of treatment. Day 0 marks the starting of the treatments. In day 28 post injection a tumor challenge was made. To that 10^4 tumor cells alive were injected in the left flank of the individual in a volume of 50 μL in sterile PBS 1X.
(§3) Mice were daily observed recording activity, weight and aspect according to parameters described by Morton y Griffiths, 1985 (see Morton D B, Griffiths P H. Guidelines on the recognition of pain, distress and discomfort in experimental animals and an hypothesis for assessment. Vet Rec. 1985 Apr. 20; 116(16):431-6). The tumor appearance was recorded and followed up to a tumor volume of 0.6 cm^3, in which animals were euthanized by cervical dislocation.

[4] = test system: systemic regulating T lymphocytes in animal spleen; test: In vivo Treg lymphocyte depletion in spleen after subcutaneous injection (Examples 3 and 5); design: species or system mice C57/BL6; details: for death of systemic regulating T lymphocytes in spleen, drug alone: day 3 post challenge, PMB up to 400 μg total or ATP up to 50 μmoles, FIGS. 10A-10C
Description: as §2, with “The results obtained herein allow determining that PMB injected deplexing regukating T lymphocytes under a transient way.” left out, “calliper.” for “calliper. The resuts obtained herein allow determining that PMB in vivo plus ATP and with cell bodies act in a prophylactic way increasing the number of animals free of tumor after the challenge with alive b16 cells.”
Mice were dead, the spleen was extracted and then marking with α-CD4, αCD25, α-CD8 and α-Foxp3 antibodies were made.
Subcutaneous injections were made in mice C57/BL6 of 6 weeks old with different concentrations of PMB, ATP or mixing concentrations of both. Mice were dead, the spleen extracted and subsequently markings were made with α-CD4, αCD25, α-CD8 and α-Foxp3 antibodies.

[5] = test system: CD4+CD25+FOXP3+ lymphocyte populations (Treg); test: In vitro effect on Treg cells in total mouse splenocyte population, flow cytometry (Example 1); format: cell-based, mice C57/BL6; details: for modification of the ATP-induced effect on Treg cells: ATP response curve, FIGS. 3A and 3B
Description: as §1
Cells are cultured for different time under a RPMI culture environment supplemented with antibiotics (penicillin, streptomycin and fungizone) with serum fetal bovine serum at 10% in a culture stove at 37° C. and 5% CO2, which will be named as standard conditions. To evaluate the effect of the treatment over regulating T lymphocytes, samples were taken for the treatments (independients) at 24, 48 and 72 hours post challenge. The recovered lymphocytes were centrifuged at 800 g and processed to be marked with antibodies against CD4, CD8, CD25. […] Samples were analyzed in a cytometer of low and analized to different subpopulations to different evaluated times. The results obtained herein allow determining that PMB in vitro under the described conditions, selectively deplexing to splenocyte regulating T lymphocytes.
Splenocytes 2×10^6 cells/ml obtained from spleen of mice C57/BL6 (6 weeks old) were cutured by 1 hour in plates 24 wells at 37° C., 5% CO2. Lately, cells were treated with PMB (Sigma-Aldrich, St Louis, Mont., USA) to different times and concentrations (0-24-48 and 72 hours, concentrations from 0.01 a 1,000 μg/ml). The treatments were kept for 24, 48 and 72 h, in which cells were kept into RPMI-1640 medium supplemented at 37° C. 5% CO2. After the treatments cells were harvested in buffer IF (PBS 2% SFB) could without dragging the adherent population. The obtained cells were blocked at 4° C. for 30 min in buffer IF. To determine the CD4+, CD8+y CD4+CD25+FOXP3+ lymphocyte populations, about 10^6 cells to were incubated with Anti-CD8 Ly-2 (BDpharmigen, Mississauga, Ontario, USA) 4° C. for 30 min with constant stirring and CD4+ T lymphocytes and Treg were identified with the kit of marking cells Treg #3 (eBioscience, San Diego, Calif., USA)as the manufacturer protocol. After the incubation cells were re-suspended in buffer IF and analyzed by flow cytometry in the equipment FACSCantoll (Beckett Dickinson, Mississauga, Ontario, USA). The same experiments above described were repeated evaluating the effect of gramicidine, ATP and ATP in presence of two PMB concentrations.

[6] = test system: CD4+, CD8+ lymphocyte populations; test: In vitro effect on CD8 and CD4 populations in total mouse splenocyte population, flow cytometry (Example 1); format: cell-based, mice C57/BL6
Description: To determine the in vitro effect of polymyxin and other receptor modulators: P2X7, spleen from mice b6 and/or balbc were extracted, and splenocytes were isolated using repeated centrifugation, eliminating red cells for treatment with a lysis buffer ACK. Generally, the experiments were performed in cells obtained from animals b6. The obtained splenocytes are cultured in RPMI Medium supplemented with antibiotics and serum at 10%. […]
Cells are cultured for different time under a RPMI culture environment supplemented with antibiotics (penicillin, streptomycin and fungizone) with serum fetal bovine serum at 10% in a culture stove at 37° C. and 5% CO2, which will be named as standard conditions. […] Samples were analyzed in a cytometer of low and analized to different subpopulations to different evaluated times. […]
Splenocytes 2×10^6 cells/ml obtained from spleen of mice C57/BL6 (6 weeks old) were cutured by 1 hour in plates 24 wells at 37° C., 5% CO2. […] After the incubation cells were re-suspended in buffer IF and analyzed by flow cytometry in the equipment FACSCantoll (Beckett Dickinson, Mississauga, Ontario, USA). […]

[7] = test system: lymphoma EL4 y EL4/ADM, tumor cell lines C1498 y REH; details: cited from earlier work
[8] = Secondary effects on health condition and regular behavior of treated animals; format: in vivo, mice; details: effective dose in animals
Description: as §3

[9] = total population of spleeny lymphocytes

Molecule: COc1ccc(CC(=O)NC(N=C(NC#N)Nc2cccc3ncccc23)C(C)(C)C)cc1OC (stereo not drawn) [A740003]
- inhibition of the effect induced by ATP 100 μM over CD4+CD25+ population [1]: inhibits only

Molecule: Nc1ncnc2c1ncn2[C@@H]1O[C@H](COP(=O)(O)OP(=O)(O)OP(=O)(O)O)[C@@H](O)[C@H]1O [ATP]
- death of human Treg cells [2]: induces the death of Treg cells
- prophylaxis against the development of tumor b16 [3]: induces prophylaxis
- death of systemic regulating T lymphocytes in spleen, drug alone [4]: does not induce the death

Molecule: CCOc1ccc(Nc2ccc(/C(=C3C=C/C(=[N+](/CC)Cc4cccc(S(=O)(=O)[O-])c4)C=C/3C)c3ccc(N(CC)Cc4cccc(S(=O)(=O)[O-])c4)cc3C)cc2)cc1.[Na+] [BBG, Brilliant Blue G]
- inhibition of the effect induced by ATP 100 μM over CD4+CD25+ population [1]: only inhibits
- inhibition of the effect of low dose PMB and ATP over CD4+CD25+ populations [1]: are inhibited

Molecule: Cc1nc(N=Nc2ccc(S(=O)(=O)O)cc2S(=O)(=O)O)c(COP(=O)(O)O)c(C=O)c1O [PPADS]
- inhibition of the effect of low dose PMB and ATP over CD4+CD25+ populations [1]: are inhibited

Molecule: gramicidine
- effect over Treg (CD4+CD25+) population [5, 9]: does not induce changes
- effect over CD8 / CD4 (T helper, T cytotoxic) populations [6]: does not induce changes

Molecule: polymyxin B [PMB]
- dependence of Treg depletion on P2X7 receptor activation ([1]; 24 hrs culture with PPADS or BBG): partially depends on the P2X7 receptor activation
- depleting concentration relative to that used in clinical and therapeutic procedures [5]: 100 times lower
- modification of the ATP-induced effect on Treg cells ([5]; PMB at 1 μg/ml): slightly modifies the effect induced by ATP
- modification of the ATP-induced effect on Treg cells ([5]; PMB at 10 μg/ml): produces a significant change in the response curve to ATP
- effect over Treg (CD4+CD25+) population [5, 9]: able to induce the death
- PMB concentration at which PMB itself induces Treg cell depletion ([5]; total population of spleeny lymphocytes, FIGS. 1A and 1B): ≥ 1 µg/mL
- death of human Treg cells [2]: induces the death of Treg cells
- cell death in eukaryote tumor cell lines [7]: induces cell death
- secondary effects over health condition and regular behavior [8]: does not demonstrate the appearance of secondary effects
- protection of challenged animals (free of tumor) ([3]; day 20 after inoculation of tumor cells, ATP 500 μM, PMB 10 mg/mL): 60%
- protection of challenged animals (free of tumor) ([3]; day 60 post inoculation): 20%
- prophylaxis against the development of tumor b16 [3]: induces prophylaxis
- increase of effectiveness of antitumor immunotherapy based on tumor cell bodies ([3]; murine melanoma model): 50%
- potentiation of Treg lymphocyte depletion in vivo ([4]; after 72 hrs of in vivo exposition, PMB 150 and 350 μg/Kg with ATP 1 g/Kg): can potentiate the deplexion
- PMB dose giving maximum depletion of Tregs lymphocytes ([4]; at a determined ATP dose (1 g/Kg), subcutaneous, FIG. 8): 0.35 mg/kg
- dose behavior in depletion of Tregs lymphocytes ([4]; at a determined ATP dose, FIG. 8): linear behavior
- death of systemic regulating T lymphocytes in spleen, drug alone [4]: does not induce the death
- effect over CD8 / CD4 (T helper, T cytotoxic) populations [6, 9]: does not significantly affect; also recorded: without affecting the CD8 population neither the CD4 population
